{"source": "patent US12582621B2", "about": "“Compositions and methods for delivering pharmaceutical agents” (Arizona Board of Regents on Behalf of the University of …, priority 2020, dated 2026)", "test_system": "radiation-induced oral mucosistis", "experiment": "Fractionated radiation-induced oral mucositis in mice, topical suramin", "assay_type": "in vivo, C57BL/6J mice", "settings": "8 Gy on 5 consecutive days, topical suramin 50 mg/ml solution by intraoral swab twice daily, assessed day 7", "protocol": "The head and neck region of six-week-old male and female C57BL/6J mice (4-5 mice/group/sex) were exposed to collimated fractionated radiation (8 Gy on 5 consecutive days). Topically applied suramin (50 mg/ml solution) was applied on day 1 of radiation by intraoral swab and twice daily throughout the experimental period. On day 7, all mice were euthanized and tongues were assessed for development and extent of oral mucositis ulceration on the dorsal surface of the tongue using 1% toluidine blue. Epithelial erosion and ulceration were visible as a deep blue color and ulceration area was measured using NIH Image J software. Histopathological grading (0-4 scale) using an established scale was used to assess OM staging and epithelial thinning.", "data": [{"smiles": "Cc1ccc(C(=O)Nc2ccc(S(=O)(=O)O)c3cc(S(=O)(=O)O)cc(S(=O)(=O)O)c23)cc1NC(=O)c1cccc(NC(=O)Nc2cccc(C(=O)Nc3cc(C(=O)Nc4ccc(S(=O)(=O)O)c5cc(S(=O)(=O)O)cc(S(=O)(=O)O)c45)ccc3C)c2)c1", "note": "[suramin, Suramin]", "values": [{"measurement": "effect on radiation-induced oral mucositis", "value": "diminishes radiation-induced oral mucosistis"}]}]}
